Experimental data published in PubChem BioAssay (NCI).
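These data come from cells grown in 96-well plates and exposed to compound for 48 hours at five concentrations. TGI marks complete inhibition of growth.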

What follows are molecules tested on A498 renal (assay: growth of human tumour cells (NCI), 48 h).

SMILES	TGI
COc1ccc2cc(Oc3ccc(Cl)cc3)c(=O)oc2c1	> 100 µM
CCN(CC)c1cc2c3c(c1)CCCN3CCC2	> 10 µM
CC(=O)O[C@H]1CC[C@H]2[C@@H]3CCC4C(C)=NNC(=O)C4[C@H]3CC[C@]12C (some centres not stated)	> 100 µM
O=c1[nH]c(C23CC4CC(CC(C4)C2)C3)cc2c1c(=O)oc1ccccc12	5.11 µM
CC1=NN(C(=O)CC(=O)Nc2ccc(C)cc2)C(=O)C1N=Nc1ccc(C(=O)O)cc1 (configuration not stated)	> 100 µM
O=C1C(=O)c2c(oc(=O)c3ccccc23)-c2ccccc21	> 25 µM
CCOC(=O)C(C(=O)OCC)=C1NC2(c3ccccc3Nc3ccc(C)cc32)C(C#N)S1 (configuration not stated)	29.4 µM
CN1CCC2(CC1)SC[C@H]1C(=O)N(c3ccc(Cl)cc3)C(=O)N12	86.3 µM
CC(C)=CCC[C@@H](C)C1=C(O)C(O)C(C)=C2N=C(c3ccccc3)C(=O)OC21 (some centres not stated)	> 13.1 µM
CC(C)(C)[Si](C)(C)O[C@@H](C(=O)OC1C=CCCC1)[C@@H](NC(=O)c1ccccc1)c1ccccc1 (some centres not stated)	> 100 µM
O=C(Nc1cccc2ccccc12)Nn1cnnc1	> 100 µM
Cc1oc2c(c1C)S(=O)(=O)C(C#N)=C(c1ccccc1)N2	> 100 µM
CCOC(=O)C1=CN/C(=C(/C)C(=O)OC)SC1C(=O)OCC (configuration not stated)	> 100 µM
Cc1ccc2c(c1)C(=O)/C(=N/Nc1ccc(Cl)cc1)CCO2	> 100 µM
COc1cc(C2SCC(=O)N2c2ccccc2Cl)cc(OC)c1OC (configuration not stated)	> 100 µM
C=C1C(=O)OC2/C=C(\CO)C3OC3C3OC3(C)CC(OC(=O)/C(=C/C)CO)C12 (configuration not stated)	> 100 µM
COc1ccc2cc(CNCCCCCCCCCCCCNCc3ccc4cc(OC)ccc4c3)ccc2c1	31.9 µM
COc1cc(S(=O)(=O)Nc2nc(-c3ccc(N4C(=O)CSC4c4cccs4)cc3)cs2)ccc1Cl (configuration not stated)	> 100 µM
COc1cc(S(=O)(=O)Nc2nc(-c3ccc(N4C(=O)C(CC(=O)O)SC4c4ccccc4O)cc3)cs2)ccc1Cl (configuration not stated)	> 100 µM
N#C/C(=C\c1cn(Cc2ccccc2)c2ccccc12)c1nn(-c2ccccc2)c(N)c1C#N	59.3 µM
COCC(N=CN1CCCc2ccccc2[C@@H]1CCCCl)C(C)(C)C (some centres not stated)	33.5 µM
CNc1c2cccc(C)c2nc2c(C(=O)NCCN(C)C)cccc12	0.935 µM
O=C1CC(NC(=O)C(F)(F)F)c2c1csc2Br (configuration not stated)	> 100 µM
C[C@]12C[C@H](c3ccccc3)Nc3ccccc3N1C(c1ccccc1)=NO2	> 100 µM
CC[C@](O)(CC(=O)O[C@H]1C(=O)O[C@@H]2C[C@H]3C(C)=CC(=O)[C@@H](O)[C@]3(C)[C@H]3[C@@]4(O)OC[C@]32[C@@H]1[C@@H](C)[C@H]4O)C(C)C	< 0.01 µM
O=C1CC(=O)NC(=NN2C(=O)/C(=C/C(=O)c3ccco3)N=C2c2ccccc2)N1	> 100 µM

What follows are molecules tested on CCRF-CEM leukemia (assay: growth of human tumour cells (NCI), 48 h).

SMILES	TGI
COc1ccc2cc(Oc3ccc(Cl)cc3)c(=O)oc2c1	> 100 µM
CCN(CC)c1cc2c3c(c1)CCCN3CCC2	> 10 µM
CC(=O)O[C@H]1CC[C@H]2[C@@H]3CCC4C(C)=NNC(=O)C4[C@H]3CC[C@]12C (some centres not stated)	> 100 µM
O=c1[nH]c(C23CC4CC(CC(C4)C2)C3)cc2c1c(=O)oc1ccccc12	42.7 µM
CC1=NN(C(=O)CC(=O)Nc2ccc(C)cc2)C(=O)C1N=Nc1ccc(C(=O)O)cc1 (configuration not stated)	> 100 µM
O=C1C(=O)c2c(oc(=O)c3ccccc23)-c2ccccc21	> 25 µM
CCOC(=O)C(C(=O)OCC)=C1NC2(c3ccccc3Nc3ccc(C)cc32)C(C#N)S1 (configuration not stated)	> 100 µM
CN1CCC2(CC1)SC[C@H]1C(=O)N(c3ccc(Cl)cc3)C(=O)N12	> 100 µM
CC(C)=CCC[C@@H](C)C1=C(O)C(O)C(C)=C2N=C(c3ccccc3)C(=O)OC21 (some centres not stated)	> 5.47 µM
CC(C)(C)[Si](C)(C)O[C@@H](C(=O)OC1C=CCCC1)[C@@H](NC(=O)c1ccccc1)c1ccccc1 (some centres not stated)	32.5 µM
O=C(Nc1cccc2ccccc12)Nn1cnnc1	> 100 µM
CCOC(=O)C1=CN/C(=C(/C)C(=O)OC)SC1C(=O)OCC (configuration not stated)	> 100 µM
Cc1ccc2c(c1)C(=O)/C(=N/Nc1ccc(Cl)cc1)CCO2	> 100 µM
COc1cc(C2SCC(=O)N2c2ccccc2Cl)cc(OC)c1OC (configuration not stated)	> 100 µM
C=C1C(=O)OC2/C=C(\CO)C3OC3C3OC3(C)CC(OC(=O)/C(=C/C)CO)C12 (configuration not stated)	> 100 µM
COc1ccc2cc(CNCCCCCCCCCCCCNCc3ccc4cc(OC)ccc4c3)ccc2c1	> 37.4 µM
COc1cc(S(=O)(=O)Nc2nc(-c3ccc(N4C(=O)CSC4c4cccs4)cc3)cs2)ccc1Cl (configuration not stated)	> 100 µM
N#C/C(=C\c1cn(Cc2ccccc2)c2ccccc12)c1nn(-c2ccccc2)c(N)c1C#N	47.8 µM
COCC(N=CN1CCCc2ccccc2[C@@H]1CCCCl)C(C)(C)C (some centres not stated)	> 100 µM
O=C1CC(NC(=O)C(F)(F)F)c2c1csc2Br (configuration not stated)	> 100 µM
C[C@]12C[C@H](c3ccccc3)Nc3ccccc3N1C(c1ccccc1)=NO2	> 100 µM
CC[C@](O)(CC(=O)O[C@H]1C(=O)O[C@@H]2C[C@H]3C(C)=CC(=O)[C@@H](O)[C@]3(C)[C@H]3[C@@]4(O)OC[C@]32[C@@H]1[C@@H](C)[C@H]4O)C(C)C	< 0.01 µM
O=C1CC(=O)NC(=NN2C(=O)/C(=C/C(=O)c3ccco3)N=C2c2ccccc2)N1	51.7 µM

These molecules were tested on SK-MEL-28 melanoma (assay: growth of human tumour cells (NCI), 48 h).

SMILES	TGI
COc1ccc2cc(Oc3ccc(Cl)cc3)c(=O)oc2c1	> 100 µM
CCN(CC)c1cc2c3c(c1)CCCN3CCC2	> 10 µM
CC(=O)O[C@H]1CC[C@H]2[C@@H]3CCC4C(C)=NNC(=O)C4[C@H]3CC[C@]12C (some centres not stated)	> 100 µM
O=c1[nH]c(C23CC4CC(CC(C4)C2)C3)cc2c1c(=O)oc1ccccc12	20.6 µM
CC1=NN(C(=O)CC(=O)Nc2ccc(C)cc2)C(=O)C1N=Nc1ccc(C(=O)O)cc1 (configuration not stated)	> 100 µM
O=C1C(=O)c2c(oc(=O)c3ccccc23)-c2ccccc21	> 25 µM
CCOC(=O)C(C(=O)OCC)=C1NC2(c3ccccc3Nc3ccc(C)cc32)C(C#N)S1 (configuration not stated)	70.9 µM
CN1CCC2(CC1)SC[C@H]1C(=O)N(c3ccc(Cl)cc3)C(=O)N12	> 100 µM
